In ChEMBL document CHEMBL5576101, “Discovery of 1,2,3-triazole-based pleuromutilin derivatives as potent gram-positive antibacterial agents” (2024):
Values after ≈ are worked out from the molar mass of the structure shown. Active and inactive are the calls of the source. No cut-off for these calls is given here.

Assays:
[1] = tested on: Enterococcus faecalis; experiment: Antibacterial activity against Enterococcus faecalis by broth dilution method; assay type: functional
[2] = tested on: Staphylococcus aureus; experiment: Antibacterial activity against methicillin-resistant Staphylococcus aureus by broth dilution method; assay type: functional
[3] = tested on: Staphylococcus aureus; experiment: Antibacterial activity against Staphylococcus aureus by broth dilution method; assay type: functional
[4] = tested on: Staphylococcus epidermidis; experiment: Antibacterial activity against Staphylococcus epidermidis by broth dilution method; assay type: functional
[5] = tested on: Escherichia coli; experiment: Antibacterial activity against Escherichia coli by broth dilution method; assay type: functional
[6] = tested on: Staphylococcus aureus; experiment: Bacteriostatic activity against methicillin-resistant Staphylococcus aureus assessed as reduction in bacterial growth at 1 times MIC measured after 24 hrs by time kill assay; assay type: functional, organism-based
[7] = tested on: Staphylococcus aureus; experiment: Bacteriostatic activity against methicillin-resistant Staphylococcus aureus assessed as log reduction in viable cell count at 6 times MIC measured after 24 hrs by time kill assay; assay type: functional
[8] = tested on: Staphylococcus aureus; experiment: Bacteriostatic activity against Staphylococcus aureus assessed as log reduction in viable cell count at 6 times MIC measured after 24 hrs by time kill assay; assay type: functional
[9] = tested on: Staphylococcus aureus; experiment: Bacteriostatic activity against Staphylococcus aureus assessed as reduction in bacterial growth at 1 times MIC measured after 24 hrs by time kill assay; assay type: functional, organism-based
[10] = tested on: Staphylococcus epidermidis; experiment: Bacteriostatic activity against Staphylococcus epidermidis assessed as reduction in bacterial growth at 1 times MIC measured after 24 hrs by time kill assay; assay type: functional, organism-based
[11] = tested on: Staphylococcus epidermidis; experiment: Bacteriostatic activity against Staphylococcus epidermidis assessed as log reduction in bacterial growth at 6 times MIC measured after 24 hrs by time kill assay; assay type: functional
[12] = tested on: Staphylococcus aureus; experiment: Bacteriostatic activity against Staphylococcus aureus assessed as log reduction in bacterial growth at 4 times MIC measured after 24 hrs by time kill assay; assay type: functional
[13] = tested on: Staphylococcus aureus; experiment: Potency index, ratio of tiamulin MIC to test compound MIC for antibacterial activity Staphylococcus aureus by broth dilution method; assay type: functional
[14] = tested on: Enterococcus faecalis; experiment: Potency index, ratio of tiamulin MIC to test compound MIC for antibacterial activity Enterococcus faecalis by broth dilution method; assay type: functional
[15] = tested on: Staphylococcus aureus; experiment: Potency index, ratio of tiamulin MIC to test compound MIC for antibacterial activity methicillin-resistant Staphylococcus aureus by broth dilution method; assay type: functional
[16] = tested on: Staphylococcus aureus; experiment: Bacteriostatic activity against Staphylococcus aureus assessed as log reduction in bacterial growth at 2 times MIC measured after 24 hrs by time kill assay; assay type: functional
[17] = tested on: Staphylococcus epidermidis; experiment: Potency index, ratio of tiamulin MIC to test compound MIC for antibacterial activity Staphylococcus epidermidis by broth dilution method; assay type: functional

Compound	MIC [1] [µg/mL]	MIC [2] [µg/mL]	MIC [3] [µg/mL]	MIC [4] [µg/mL]	MIC [5] [µg/mL]	Activity [6]	log(activity) [7]	log(activity) [8]	Activity [9]	Activity [10]	log(activity) [11]	log(activity) [12]	Ratio [13]	Ratio [14]	Ratio [15]	log(activity) [16]	Ratio [17]
C=C[C@]1(C)C[C@@H](OC(=O)CSC(C)(C)CNC(=O)Cn2cc(CNc3ccc(OCCCCCC)cc3)nn2)[C@]2(C)[C@H](C)CC[C@]3(CCC(=O)[C@H]32)[C@@H](C)[C@@H]1O	0.062 (≈ 0.0795 µM)	16 (≈ 20.5 µM)	> 64	0.5 (≈ 0.641 µM)	> 64	–	–	–	–	–	–	–	–	–	–	–	–
C=C[C@]1(C)C[C@@H](OC(=O)CSC(C)(C)CNC(=O)Cn2cc(Cc3cccc(N)c3)nn2)[C@]2(C)[C@H](C)CC[C@]3(CCC(=O)[C@H]32)[C@@H](C)[C@@H]1O	> 64	0.062 (≈ 0.0912 µM)	> 64	0.062 (≈ 0.0912 µM)	> 64	Active	4.3	4.1	Active	Active	–	–	–	–	–	–	–
C=C[C@]1(C)C[C@@H](OC(=O)CSC(C)(C)CNC(=O)Cn2cc(CNc3ccc([N+](=O)[O-])cc3)nn2)[C@]2(C)[C@H](C)CC[C@]3(CCC(=O)[C@H]32)[C@@H](C)[C@@H]1O	2 (≈ 2.76 µM)	0.25 (≈ 0.345 µM)	64 (≈ 88.3 µM)	0.125 (≈ 0.172 µM)	> 64	Active	–	–	Active	Active	4.4	–	–	–	–	–	–
C=C[C@]1(C)C[C@@H](OC(=O)CSC(C)(C)CNC(=O)Cn2cc(COc3ccc([N+](=O)[O-])cc3)nn2)[C@]2(C)[C@H](C)CC[C@]3(CCC(=O)[C@H]32)[C@@H](C)[C@@H]1O	64 (≈ 88.2 µM)	4 (≈ 5.51 µM)	4 (≈ 5.51 µM)	1 (≈ 1.38 µM)	> 64	–	–	–	–	–	–	–	–	–	–	–	–
C=C[C@]1(C)C[C@@H](OC(=O)CSC(C)(C)CNC(=O)Cn2cc(Cc3ccccc3)nn2)[C@]2(C)[C@H](C)CC[C@]3(CCC(=O)[C@H]32)[C@@H](C)[C@@H]1O	64 (≈ 96.3 µM)	4 (≈ 6.02 µM)	16 (≈ 24.1 µM)	4 (≈ 6.02 µM)	> 64	–	–	–	–	–	–	–	–	–	–	–	–
C=C[C@]1(C)C[C@@H](OC(=O)CSC(C)(C)CNC(=O)Cn2cc(CNc3ccc(Br)cc3)nn2)[C@]2(C)[C@H](C)CC[C@]3(CCC(=O)[C@H]32)[C@@H](C)[C@@H]1O	> 64	64 (≈ 84.3 µM)	> 64	16 (≈ 21.1 µM)	> 64	–	–	–	–	–	–	–	–	–	–	–	–
C=C[C@]1(C)C[C@@H](OC(=O)CSC(C)(C)CNC(=O)Cn2cc(COc3ccc(C)cc3)nn2)[C@]2(C)[C@H](C)CC[C@]3(CCC(=O)[C@H]32)[C@@H](C)[C@@H]1O	16 (≈ 23 µM)	0.062 (≈ 0.0892 µM)	> 64	0.062 (≈ 0.0892 µM)	> 64	–	–	–	–	–	–	–	–	–	–	–	–
C=C[C@]1(C)C[C@@H](OC(=O)CSC(C)(C)CNC(=O)Cn2cc(COc3ccccc3)nn2)[C@]2(C)[C@H](C)CC[C@]3(CCC(=O)[C@H]32)[C@@H](C)[C@@H]1O	16 (≈ 23.5 µM)	8 (≈ 11.7 µM)	64 (≈ 94 µM)	8 (≈ 11.7 µM)	> 64	–	–	–	–	–	–	–	–	–	–	–	–
C=C[C@]1(C)C[C@@H](OC(=O)CSC(C)(C)CNC(=O)Cn2cc(Cc3ccc(OC)cc3)nn2)[C@]2(C)[C@H](C)CC[C@]3(CCC(=O)[C@H]32)[C@@H](C)[C@@H]1O	1 (≈ 1.44 µM)	> 64	0.5 (≈ 0.719 µM)	0.5 (≈ 0.719 µM)	> 64	–	–	–	–	–	–	–	–	–	–	–	–
C=C[C@]1(C)C[C@@H](OC(=O)CSC(C)(C)CNC(=O)Cn2cc(CNc3ccc(Cl)cc3)nn2)[C@]2(C)[C@H](C)CC[C@]3(CCC(=O)[C@H]32)[C@@H](C)[C@@H]1O	64 (≈ 89.6 µM)	8 (≈ 11.2 µM)	2 (≈ 2.8 µM)	8 (≈ 11.2 µM)	> 64	–	–	–	–	–	–	–	–	–	–	–	–
C=C[C@]1(C)C[C@@H](OC(=O)CSC(C)(C)CNC(=O)Cn2cc(CNc3ccc(CCC)cc3)nn2)[C@]2(C)[C@H](C)CC[C@]3(CCC(=O)[C@H]32)[C@@H](C)[C@@H]1O	> 64	4 (≈ 5.54 µM)	32 (≈ 44.3 µM)	16 (≈ 22.2 µM)	> 64	–	–	–	–	–	–	–	–	–	–	–	–
C=C[C@]1(C)C[C@@H](OC(=O)CSCCN(CC)CC)[C@]2(C)[C@H](C)CC[C@]3(CCC(=O)[C@H]32)[C@@H](C)[C@@H]1O [TIAMULIN]	32 (≈ 64.8 µM)	0.25 (≈ 0.506 µM)	4 (≈ 8.1 µM)	0.5 (≈ 1.01 µM)	> 64	–	–	–	–	–	–	–	–	–	–	–	–
C=C[C@]1(C)C[C@@H](OC(=O)CSC(C)(C)CNC(=O)Cn2cc(COc3ccc([N+](=O)[O-])cc3[N+](=O)[O-])nn2)[C@]2(C)[C@H](C)CC[C@]3(CCC(=O)[C@H]32)[C@@H](C)[C@@H]1O	0.25 (≈ 0.324 µM)	0.062 (≈ 0.0804 µM)	0.062 (≈ 0.0804 µM)	0.062 (≈ 0.0804 µM)	> 64	Active	4.3	4.1	Active	Active	–	3.38	64	128	4	1.98	8
C=C[C@]1(C)C[C@@H](OC(=O)CSC(C)(C)CNC(=O)Cn2cc(CNc3ccc(CCCCCC)cc3)nn2)[C@]2(C)[C@H](C)CC[C@]3(CCC(=O)[C@H]32)[C@@H](C)[C@@H]1O	> 64	8 (≈ 10.5 µM)	32 (≈ 41.9 µM)	2 (≈ 2.62 µM)	> 64	–	–	–	–	–	–	–	–	–	–	–	–
C=C[C@]1(C)C[C@@H](OC(=O)CSC(C)(C)CNC(=O)Cn2cc(CNc3ccc(C)cc3)nn2)[C@]2(C)[C@H](C)CC[C@]3(CCC(=O)[C@H]32)[C@@H](C)[C@@H]1O	64 (≈ 92.2 µM)	16 (≈ 23.1 µM)	16 (≈ 23.1 µM)	2 (≈ 2.88 µM)	> 64	–	–	–	–	–	–	–	–	–	–	–	–
C=C[C@]1(C)C[C@@H](OC(=O)CSC(C)(C)CNC(=O)Cn2cc(Cc3cccnc3)nn2)[C@]2(C)[C@H](C)CC[C@]3(CCC(=O)[C@H]32)[C@@H](C)[C@@H]1O	0.062 (≈ 0.0931 µM)	2 (≈ 3 µM)	16 (≈ 24 µM)	0.25 (≈ 0.375 µM)	> 64	–	–	–	–	–	–	–	–	–	–	–	–
C=C[C@]1(C)C[C@@H](OC(=O)CSC(C)(C)CNC(=O)Cn2cc(CC3CC3)nn2)[C@]2(C)[C@H](C)CC[C@]3(CCC(=O)[C@H]32)[C@@H](C)[C@@H]1O	64 (≈ 102 µM)	8 (≈ 12.7 µM)	4 (≈ 6.36 µM)	0.5 (≈ 0.795 µM)	> 64	–	–	–	–	–	–	–	–	–	–	–	–
C=C[C@]1(C)C[C@@H](OC(=O)CSC(C)(C)CNC(=O)Cn2cc(CNc3ccc(OC)cc3)nn2)[C@]2(C)[C@H](C)CC[C@]3(CCC(=O)[C@H]32)[C@@H](C)[C@@H]1O	64 (≈ 90.1 µM)	4 (≈ 5.63 µM)	4 (≈ 5.63 µM)	2 (≈ 2.82 µM)	> 64	–	–	–	–	–	–	–	–	–	–	–	–
